# Experimental data reported in patent publication US7385051B2, “Fluorescent N2,N3-etheno-purine (2′-deoxy) riboside derivatives and uses thereof” (Bar-llan University, priority 2005, dated 2008).
# pEC50: −log10 of the molar value. Entries after “also recorded” stand apart in the source; their conditions may differ.
# Columns and labels:
# rat brain P2Y1-receptor = target: T1, rat brain P2Y1-receptor (Rattus norvegicus, UniProt P49651); test: Agonist-induced Ca2+ release in HEK 293 cells stably transfected with P2Y1-receptor; assay type: cell-based; details: HEK 293 cells with rat brain P2Y1-receptor
# T1 construct: expressed in transfected cells
# Description: To examine the efficacy of analogues 30a,d in a functional assay, we tested them by the agonist-induced Ca^2+ release in HEK 293 cells stably transfected with rat brain P2Y1-receptor (FIG. 6) (Voehringer et al., 2000). […] However, a benzyl substitution at N^6 of 30a, as in analogue 30d, reduced the ligand's potency. […] EC50 value in the range of 10^−6 M.
# NTPDase2 [1] = target: T2, NTPDase2 (Homo sapiens, UniProt Q9Y5L3); test: Hydrolysis as substrates of NTPDase2; assay type: biochemical; details: substrate at 200 μM
# T2 sequence (Q9Y5L3 1-495): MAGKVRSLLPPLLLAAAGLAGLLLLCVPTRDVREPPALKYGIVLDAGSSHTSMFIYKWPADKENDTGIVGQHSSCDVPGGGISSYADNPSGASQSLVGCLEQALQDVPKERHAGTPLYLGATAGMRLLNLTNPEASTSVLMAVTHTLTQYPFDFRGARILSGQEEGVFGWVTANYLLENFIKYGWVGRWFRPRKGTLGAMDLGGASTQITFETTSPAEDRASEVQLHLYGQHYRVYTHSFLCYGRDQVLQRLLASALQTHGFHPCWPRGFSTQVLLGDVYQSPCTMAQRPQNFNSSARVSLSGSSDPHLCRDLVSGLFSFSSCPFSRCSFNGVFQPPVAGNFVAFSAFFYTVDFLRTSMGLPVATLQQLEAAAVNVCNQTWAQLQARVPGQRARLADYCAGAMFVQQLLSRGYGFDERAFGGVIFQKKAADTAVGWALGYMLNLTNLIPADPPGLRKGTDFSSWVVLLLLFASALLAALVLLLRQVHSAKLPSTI
# Protocol: (§1) For evaluation of the probes as substrates/inhibitors of NTPDase1 and 2, the analogues 30a-f were evaluated as either substrates or inhibitors of NTPDase1 and 2. We tested ATP and analogues 30 as substrates of NTPDases 1 and 2 at 100 μM for NTPDase1 and 200 μM for NTPDase2. All analogues were hydrolysed by NTPDases 1 and 2. NTPDase2 hydrolysed analogues 30 better than NTPDase1. When compared to ATP, the rate of hydrolysis of all analogues was lower for NTPDase1 and mostly similar for NTPDase2 (FIGS. 7A-7B).
# NTPDase2 [2] = target: T2, NTPDase2; test: Fluorescence spectra of the nucleotide with and without NTPDase2; assay type: biochemical; design: made in house; host or cells: COS-7 cells (transfected; lysate used as enzyme); details: 200 μM nucleotide, excitation at 290 nm
# Description: Next, we tested whether N^2,N3-ε-A is suitable for probing ectonucleotidases. […] For this purpose, we measured the fluorescence spectra of 30a and its monophosphate homologue with and without human NTPDase2. We observed that the fluorescence intensity of the nucleotide decreased by ca. ⅓ upon the addition of the enzyme (not shown). This observation is consistent with the lower dielectric constant (polarity) of the protein as compared to that of the aqueous solution. Fluorescence intensity of the bound nucleotide, although lowered, still enables the application of this nucleotide as a fluorescent probe.
# For the fluorescence studies of 30a-NTPDase2 complex, emission spectra of 30a and its monophosphate homologue, 30a′, were measured in the presence of human NTPDase2 using an Aminco-Bowman series 2 Luminescence Spectrometer. Measurement conditions included: 740-780 V sensitivity, 37° C. and excitation at 290 nm. The concentration of the samples was of the order of 2×10^−4 M in the NTPDase incubation mixture. Measurements of the emission spectra were performed in 1.5 ml of 200 μM 30a and 30a′, without enzyme. Enzyme was added (3.6 μg of transfected COS-7 cells lysate), then, emission spectra were measured at 5 min intervals. […]
# NTPDase1 = target: T3, NTPDase1 (Homo sapiens, UniProt P49961); test: Hydrolysis as substrates of NTPDase1; assay type: biochemical; details: substrate at 100 μM
# T3 sequence (P49961 1-510): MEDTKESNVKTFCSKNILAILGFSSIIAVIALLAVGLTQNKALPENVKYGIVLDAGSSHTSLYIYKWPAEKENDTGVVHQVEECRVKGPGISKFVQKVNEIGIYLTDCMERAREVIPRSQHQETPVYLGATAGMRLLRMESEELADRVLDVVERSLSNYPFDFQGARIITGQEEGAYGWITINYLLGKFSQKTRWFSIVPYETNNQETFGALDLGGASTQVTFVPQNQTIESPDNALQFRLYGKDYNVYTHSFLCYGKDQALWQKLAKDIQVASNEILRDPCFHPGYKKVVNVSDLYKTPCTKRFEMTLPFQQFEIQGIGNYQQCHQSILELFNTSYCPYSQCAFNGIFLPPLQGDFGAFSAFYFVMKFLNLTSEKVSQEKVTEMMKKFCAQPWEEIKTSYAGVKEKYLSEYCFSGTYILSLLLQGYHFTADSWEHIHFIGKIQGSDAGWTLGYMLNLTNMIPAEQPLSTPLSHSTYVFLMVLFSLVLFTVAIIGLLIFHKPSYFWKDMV
# Protocol: as §1
# T1 sequence (P49651 whole entry): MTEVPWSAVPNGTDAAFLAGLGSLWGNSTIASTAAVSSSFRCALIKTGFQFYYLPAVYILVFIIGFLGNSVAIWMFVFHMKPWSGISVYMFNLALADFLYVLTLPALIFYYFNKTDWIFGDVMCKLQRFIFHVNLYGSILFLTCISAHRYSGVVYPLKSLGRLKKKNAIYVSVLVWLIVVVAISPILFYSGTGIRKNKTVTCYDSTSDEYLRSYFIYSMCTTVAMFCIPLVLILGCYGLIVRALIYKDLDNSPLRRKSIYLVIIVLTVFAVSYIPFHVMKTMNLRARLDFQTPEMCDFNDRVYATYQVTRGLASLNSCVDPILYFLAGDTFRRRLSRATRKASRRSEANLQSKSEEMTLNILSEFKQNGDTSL
SMILES,pEC50 (rat brain P2Y1-receptor; Ca^2+ release),Potency at P2Y1-R compared to ATP / 30a (rat brain P2Y1-receptor),Rate of hydrolysis by NTPDase2 compared to ATP (NTPDase2 [1]),"Decrease of fluorescence intensity upon the addition of the enzyme (NTPDase2 [2]; human NTPDase2 (3.6 μg COS-7 lysate), 37° C.)","Shift of maximum emission upon the addition of the enzyme (NTPDase2 [2]; human NTPDase2, 37° C.)",Rate of hydrolysis by NTPDase1 compared to ATP (NTPDase1)
"Nc1nc2nccn2c2c1ncn2C1OC(COP(=O)(O)OP(=O)(O)OP(=O)(O)O)C(O)C1O (stereo not shown) [Compound 30a, N^2,N3-ethenoadenosine-5′-triphosphate]",~7.00,almost equipotent with ATP; also recorded: almost equipotent to ATP,almost equipotent to ATP,ca. ⅓; also recorded: lower fluorescence intensity,does not shift,
"O=P(O)(O)OP(=O)(O)OP(=O)(O)OCC1OC(n2cnc3c(N(Cc4ccccc4)Cc4ccccc4)nc4nccn4c32)C(O)C1O (stereo not shown) [Compound 30e, N^6,N^6-Dibenzyl-N^2,N3-ethenoadenosine-5′-triphosphate]",,,less efficiently than ATP; also recorded: significant reduction of the affinities,,,less efficiently than ATP
